PubChem BioAssay AID330 (DTP/NCI, 2004)
“And” between values parts separate entries of the source, which are not always exact repeats. Identical values can stand only once. Inconclusive results and toxic doses are left out. Rule for the calls: active = survival T/C of 150% or more; inactive = T/C below 125% in these data.

Test system: P388 leukemia ip, CD2F1 mice, survival T/C
Assay: NCI In Vivo Anticancer Drug Screen. Data for tumor model P388 Leukemia (intraperitoneal) in CD2F1 (CDF1) mice
Settings: endpoint: median survival time, higher = longer survival
In short: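 Mice carrying the transplanted tumor received test compound or vehicle. Survival was recorded in each group, and the value is the treated-group measurement divided by that of the vehicle-treated control group.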

[1] = dose: 60.0 mg/kg/injection, schedule: Q01DX005 (ip), vehicle: saline with Tween-80
[2] = dose: 120.0 mg/kg/injection, schedule: Q01DX005 (ip), vehicle: saline with Tween-80
[3] = dose: 240.0 mg/kg/injection, schedule: Q01DX005 (ip), vehicle: saline with Tween-80
[4] = dose: 50.0 mg/kg/injection, schedule: Q01DX005 (ip), vehicle: saline with Tween-80
[5] = dose: 100.0 mg/kg/injection, schedule: Q01DX005 (ip), vehicle: saline with Tween-80
[6] = dose: 200.0 mg/kg/injection, schedule: Q01DX005 (ip), vehicle: saline with Tween-80
[7] = dose: 12.5 mg/kg/injection, schedule: Q01DX009 (ip), vehicle: saline with Tween-80
[8] = dose: 25.0 mg/kg/injection, schedule: Q01DX009 (ip), vehicle: saline with Tween-80
[9] = dose: 50.0 mg/kg/injection, schedule: Q01DX009 (ip), vehicle: saline with Tween-80
[10] = dose: 50.0 mg/kg/injection, schedule: Q01DX009 (ip), vehicle: saline

Measured: T/C

O=C1NC(=O)[C@H]2C3C=CC([C@@H]12)[C@@H]1C(=O)NC(=O)[C@H]31
inactive: dose: 25.0 mg/kg/injection, schedule: Q01DX009 (ip), vehicle: water 105 % of control | dose: 50.0 mg/kg/injection, schedule: Q01DX009 (ip), vehicle: water 100 % of control | dose: 100.0 mg/kg/injection, schedule: Q01DX009 (ip), vehicle: water 97 % of control | dose: 200.0 mg/kg/injection, schedule: Q01DX009 (ip), vehicle: water 92 % of control

Cc1c2cccc(F)c2c[n+]2ccccc12
inactive: dose: 6.25 mg/kg/injection, schedule: Q01DX009 (ip), vehicle: Klucel (hydroxypropylcellulose) (HPC) 96 % of control | dose: 12.5 mg/kg/injection, schedule: Q01DX009 (ip), vehicle: Klucel (hydroxypropylcellulose) (HPC) 103 % of control | dose: 25.0 mg/kg/injection, schedule: Q01DX009 (ip), vehicle: Klucel (hydroxypropylcellulose) (HPC) 102 % of control and 113 % of control

CCC(c1ccc(OC)cc1)C(CC)c1ccc(O)c(CN(C)C)c1 (configuration not stated)
inactive: [1] 94 % of control | [2] 92 % of control | [3] 92 % of control

Cc1ccc2c(c1)Sc1c(ccc3ccccc13)N2
inactive: [4] 103 % of control | [5] 102 % of control | [6] 97 % of control

CC1CCC2N(C1)CC1C3(O)CC45OC6(O)C(O)CCC4(C)C6CCC5C3(O)CC(O)C1(O)C2(C)O (configuration not stated)
inactive: dose: 3.12 mg/kg/injection, schedule: Q01DX009 (ip), vehicle: saline with Tween-80 103 % of control | dose: 6.25 mg/kg/injection, schedule: Q01DX009 (ip), vehicle: saline with Tween-80 112 % of control | [7] 98 % of control | dose: 25.0 mg/kg/injection, schedule: Q01DX005 (ip), vehicle: saline 114 % of control | [8] 103 % of control | dose: 50.0 mg/kg/injection, schedule: Q01DX005 (ip), vehicle: saline 109 % of control | [9] 98 % of control | dose: 100.0 mg/kg/injection, schedule: Q01DX005 (ip), vehicle: saline 107 % of control

CC(/C(=N/O)c1ccccc1)N1C(=O)c2ccccc2C1=O (configuration not stated)
inactive: dose: 60.0 mg/kg/injection, schedule: Q01DX005 (ip), vehicle: Klucel (hydroxypropylcellulose) (HPC) 100 % of control | dose: 120.0 mg/kg/injection, schedule: Q01DX005 (ip), vehicle: Klucel (hydroxypropylcellulose) (HPC) 99 % of control | dose: 240.0 mg/kg/injection, schedule: Q01DX005 (ip), vehicle: Klucel (hydroxypropylcellulose) (HPC) 96 % of control

CN(C)C(=C1C=CC=C/C1=N/S(=O)(=O)c1ccccc1)N(C)C
inactive: dose: 100.0 mg/kg/injection, schedule: Q04DX003 (ip), vehicle: saline 103 % of control | dose: 200.0 mg/kg/injection, schedule: Q04DX003 (ip), vehicle: saline 108 % of control | dose: 400.0 mg/kg/injection, schedule: Q04DX003 (ip), vehicle: saline 105 % of control

C[n+]1c(-c2ccc(/C=N/NC(=O)c3ccc(C(=O)N/N=C/c4ccc(-c5cn6ccccc6[n+]5C)cc4)c(O)c3O)cc2)cn2ccccc21
inactive: [4] 107 % of control | [5] 96 % of control

CN(C)Cc1c(N=Nc2cccc3ccccc23)[nH]c2ccccc12
inactive: dose: 50.0 mg/kg/injection, schedule: Q01DX009 (ip), vehicle: Klucel (hydroxypropylcellulose) (HPC) 106 % of control | dose: 100.0 mg/kg/injection, schedule: Q01DX009 (ip), vehicle: Klucel (hydroxypropylcellulose) (HPC) 101 % of control | dose: 200.0 mg/kg/injection, schedule: Q01DX009 (ip), vehicle: Klucel (hydroxypropylcellulose) (HPC) 105 % of control

CCOC(=O)Cc1ccc2c(c1)sc1nc(-c3ccc(OC)cc3)cn12
inactive: dose: 50.0 mg/kg/injection, schedule: Q01DX009 (ip), vehicle: DMSO 104 % of control | dose: 100.0 mg/kg/injection, schedule: Q01DX009 (ip), vehicle: DMSO 103 % of control | dose: 200.0 mg/kg/injection, schedule: Q01DX009 (ip), vehicle: DMSO 94 % of control

O=C(OCc1ccccc1)n1nnc2ccccc21
inactive: [1] 113 % of control | [2] 105 % of control | [3] 111 % of control

COc1cccc(N=Nc2c(-c3ccccc3)nn(C(=S)S)c2C)c1
inactive: [4] 93 % of control | [5] 93 % of control | [6] 91 % of control

NC(CCCCNC(=S)S)C(=O)O.[Na+].[Zn+2] (configuration not stated)
inactive: dose: 12.5 mg/kg/injection, schedule: Q01DX005 (ip), vehicle: Klucel (hydroxypropylcellulose) (HPC) 102 % of control | dose: 25.0 mg/kg/injection, schedule: Q01DX005 (ip), vehicle: Klucel (hydroxypropylcellulose) (HPC) 102 % of control | dose: 50.0 mg/kg/injection, schedule: Q01DX005 (ip), vehicle: Klucel (hydroxypropylcellulose) (HPC) 102 % of control and 107 % of control and 114 % of control | dose: 100.0 mg/kg/injection, schedule: Q01DX005 (ip), vehicle: Klucel (hydroxypropylcellulose) (HPC) 109 % of control and 120 % of control (2×)

Cc1nsc(N)n1
inactive: dose: 6.25 mg/kg/injection, schedule: Q01DX009 (ip), vehicle: saline 100 % of control | dose: 6.25 mg/kg/injection, schedule: Q01DX009 (ip), vehicle: suspension in saline 94 % of control | dose: 12.5 mg/kg/injection, schedule: Q01DX009 (ip), vehicle: saline 100 % of control and 98 % of control | dose: 12.5 mg/kg/injection, schedule: Q01DX009 (ip), vehicle: suspension in saline 101 % of control | dose: 25.0 mg/kg/injection, schedule: Q01DX009 (ip), vehicle: saline 100 % of control and 98 % of control | dose: 25.0 mg/kg/injection, schedule: Q01DX009 (ip), vehicle: suspension in saline 102 % of control | [10] 99 % of control and 98 % of control | dose: 50.0 mg/kg/injection, schedule: Q01DX009 (ip), vehicle: suspension in saline 103 % of control

CCOC(=O)CSc1ccc(C)cc1C(O)(C(F)(F)F)C(F)(F)F
inactive: [7] 98 % of control | [8] 99 % of control | [9] 108 % of control | dose: 100.0 mg/kg/injection, schedule: Q01DX009 (ip), vehicle: saline with Tween-80 99 % of control | dose: 200.0 mg/kg/injection, schedule: Q01DX009 (ip), vehicle: saline with Tween-80 101 % of control

O=C(Nc1ncnc2nc[nH]c12)NC1CCCCC1
inactive: dose: 0.75 mg/kg/injection, schedule: Q01DX005 (ip), vehicle: saline 106 % of control | dose: 1.5 mg/kg/injection, schedule: Q01DX005 (ip), vehicle: saline 98 % of control | dose: 3.0 mg/kg/injection, schedule: Q01DX005 (ip), vehicle: saline 95 % of control | dose: 6.25 mg/kg/injection, schedule: Q01DX005 (ip), vehicle: saline with Tween-80 89 % of control | dose: 12.5 mg/kg/injection, schedule: Q01DX005 (ip), vehicle: saline with Tween-80 98 % of control | dose: 25.0 mg/kg/injection, schedule: Q01DX005 (ip), vehicle: saline with Tween-80 86 % of control | [4] 109 % of control

O=C1c2ccccc2NC(c2cc(Cl)cc(Cl)c2O)N1CCc1ccccn1 (configuration not stated)
inactive: [10] 92 % of control | dose: 100.0 mg/kg/injection, schedule: Q01DX009 (ip), vehicle: saline 94 % of control
